The results in this text go back to article PMC9667936, “Functional mapping of the 14-3-3 hub protein as a guide to design 14-3-3 molecular glues” (Chemical Science, 2022).

The assay deals with T1, 14-3-3γ/ChREBP (Homo sapiens, UniProt P61981+Q9NP71).
T1 construct: made in house; host or cells: E. coli NiCo21 (DE3) for 14-3-3 gamma; ChREBP is a synthetic peptide
T1 sequence (P61981 1-247): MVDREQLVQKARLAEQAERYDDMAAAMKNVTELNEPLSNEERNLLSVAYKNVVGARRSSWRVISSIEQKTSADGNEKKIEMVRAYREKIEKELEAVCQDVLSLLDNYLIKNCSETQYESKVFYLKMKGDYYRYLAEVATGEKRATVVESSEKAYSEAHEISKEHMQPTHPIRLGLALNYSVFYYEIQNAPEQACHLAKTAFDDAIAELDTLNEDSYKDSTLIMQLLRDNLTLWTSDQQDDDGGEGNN
T1 sequence (Q9NP71 118-142 partner limits assumed): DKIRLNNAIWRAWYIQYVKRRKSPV
Put plainly: FA ChREBP titration to FITC-labelled peptide with or without 14-3-3 (ternary complex formation). The assay is classed as binding. Conditions: for ternary complex formation (anisotropy) on ChREBP titration in presence of 14-3-3γ: ChREBP titrated to preformed complex of 14-3-3γ and FITC-labelled peptide, Fig. 5d. Here is the method:
performed twice per cycle with 20% v/v piperidine in N,N-dimethylformamide (DMF) for five minutes.
Fmoc-protected amino acids were mixed with 9 equivalents HBTU (0.38 M in DMF) and 15 equivalents of DIPEA, and coupled to the resin for 30 minutes (except pS, which is coupled for 60 minutes).
Peptides 1 and 2e-i were labeled with fluorescein via a 5-(-fluorenylmehyloxycarbonyl-amino)-3-oxapentanoic acid (O1-Pen) linker using 5 equivalents of FITC and 7.5 equivalents of DIPEA reacting overnight with continuous agitation. Removal of protecting groups and cleavage of the resin was performed by incubation in a mixture of trifluoroacetic acid (TFA), H2O, and triisopropylsilane (TIS) (96.5:2.5:1) for 2 hours with continuous agitation, followed by precipitation in an excess of ice-cold […]
Peptides 1 and 2a-d were FITC labeled via a three-step approach. The free amine on the N-terminus was protected as follows: to a solution of di-tert-butyl decarbonate (10 eq, 400 mM) in DCM was added DIEA (10 eq), and solution was added to the resin. Coupling was allowed to proceed for 1 h. At this time, resin was washed 3x with DCM and coupling was repeated as described. […]
All peptides were purified using preparative HP-LC. […] The purity of the samples was assessed using a UV detector at 254 […]
Fluorescence anisotropy (FA) - binary binding studies: 14-3-3γ was titrated in a 2-fold dilution series (starting at 100 or 400 µM 14-3-3γ) to 10 nM of fluorescein-labeled peptide in FA buffer (10 mM HEPES pH 7.4, 150 mM NaCl, 0.1% (v/v) Tween20, 0.1% (w/v) BSA). […]
Measurements were performed directly after plate preparation, using a Tecan Infinite F500 plate reader at room temperature (lex: 485 ± 20 nm; lem: 535 ± 25 nm; mirror: Dichroic 510; flashes: 20; integration time: 50 ms; settle time: 0 ms; gain: optimal; and Z-position: calculated from well). […] All data were analyzed using GraphPad Prism (7.00) for Windows and fitted using a four-parameter logistic model (4PL). Each measurement was performed in three independent experiments, average and standard deviations were calculated in Excel […]

Each structure is given as a SMILES string. Where a SMILES comes first, the peptide text is derived from it. [ ]: non-standard residue; d: D form. The star is where a group is joined. ξ: configuration not given here. FITC = O=C1OC2(c3ccc(O)cc3Oc3cc(O)ccc32)c2ccc(NC(=S)*)cc21; Phe(4-NO2) = N[C@@H](Cc1ccc([N+](=O)[O-])cc1)C(=O)O; ξAla(4-thiazolyl) = NC(Cc1cscn1)C(=O)O; pS = N[C@@H](COP(=O)(O)O)C(=O)O; β3hS = N[C@@H](CO)CC(=O)O; βAla = NCCC(=O)O

For the compound `C[C@H](NC(=O)[C@H](CCCCN)NC(=O)[C@H](Cc1ccc([N+](=O)[O-])cc1)NC(=O)CCNC(=O)C[C@H](CO)NC(=O)[C@H](Cc1ccc([N+](=O)[O-])cc1)NC(=O)[C@H](COP(=O)(O)O)NC(=O)C(N)Cc1cscn1)C(=O)N[C@@H](CCCCNC(=S)Nc1ccc2c(c1)C(=O)OC21c2ccc(O)cc2Oc2cc(O)ccc21)C(N)=O` (stereo partly drawn) [2c] (H-[ξAla(4-thiazolyl)][pS][Phe(4-NO2)][β3hS][βAla][Phe(4-NO2)]KAK(FITC)-NH2), the “ternary complex formation (anisotropy) on ChREBP titration in presence of 14-3-3γ” value was “lack of increase in anisotropy values”.
Turning to `C[C@H](NC(=O)[C@H](CCCCN)NC(=O)[C@H](Cc1ccc([N+](=O)[O-])cc1)NC(=O)CCNC(=O)C[C@H](CO)NC(=O)[C@H](Cc1ccc([N+](=O)[O-])cc1)NC(=O)[C@@H](N)COP(=O)(O)O)C(=O)N[C@@H](CCCCNC(=S)Nc1ccc2c(c1)C(=O)OC21c2ccc(O)cc2Oc2cc(O)ccc21)C(N)=O` [2d] (H-[pS][Phe(4-NO2)][β3hS][βAla][Phe(4-NO2)]KAK(FITC)-NH2), the “ternary complex formation (anisotropy) on ChREBP titration in presence of 14-3-3γ” value is recorded as “dose-dependent increase in 14-3-3/ChREBP/2d complex formation”. Further, for the setting “no 14-3-3 present, Fig. 5e”, the “increase in anisotropy on ChREBP titration to FITC-labelled peptide alone” value is on record as “not observed”.
